Results as given in a melting point compilation (Tetko et al.; mined from patent text by program, amines drawn as free bases though some values may be those of a salt).

melting point	Compound
144 to 146 °C	CC(c1ccc(C#Cc2ccccc2)cc1)N(O)C(N)=O (centres undefined)
180 to 182 °C	CCCCCCCCCCOc1cc2oc3c(C(=O)O)cccc3c(=O)c2cc1CCC(=O)O
129 to 130 °C	Cc1ccc(CC(NCc2ccc(O)cc2)c2ccccc2)cc1 (centres undefined)
134 to 138 °C	Cc1cccc(-c2n[nH]cc2-c2ccc(F)c(-c3cn4c(n3)S(=O)(=O)CC4)c2)n1
175 to 177 °C	O=C(NN1CCCCC1)NS(=O)(=O)C=Cc1ccccc1
63 to 64 °C	COc1ccc(C2(C#Cc3cccc(NC(C)=O)c3)CCC(=O)CC2)cc1OC1CCCC1
128 to 129 °C	N#Cc1cc([N+](=O)[O-])ccc1Oc1c(F)c(F)c(F)c(F)c1F
46 to 47 °C	C=CC1OC(OC)C(OCc2ccccc2)C(OCc2ccccc2)C1OCc1ccccc1 (centres undefined)
191 to 192 °C	CC1(c2ccc(-c3ccccc3)cc2)CC(=O)NN1 (centres undefined)
170 to 171 °C	CC(C)c1cccc(C(C)C)c1NC(=O)NCC1=CCCc2ccccc21
106 to 109 °C	COc1ccc(C2Cc3[nH]c4ccccc4c3C2)cc1 (centres undefined)
168 to 170 °C	COc1cc(OC)nc(NC(=O)NS(=O)(=O)C(C)c2ccccc2[N+](=O)[O-])n1 (centres undefined)
74 to 76 °C	CC(Br)(CBr)CS(=O)(=O)Oc1c(Cl)cccc1Cl (centres undefined)
204 to 206 °C	CCCCc1ncc(/C=C(\Cc2ccccc2)C(=O)O)n1Cc1c(F)cccc1Cl
87.5 to 90 °C	CN(C)C(=O)C(C1CCCCC1)n1ccc(-c2ccccc2)n1 (centres undefined)
285 to 288 °C	N#CN=C(Nc1cccnc1)NC1(c2ccccc2)CC=CC1
176 to 180 °C	Nc1ncc(C#Cc2ccc(Cl)cc2)c(NCCOCCO)n1
94 to 95 °C	O=C(NC1CCN(CCc2ccc(Cl)cc2)C1)C12CC3CC(CC(C3)C1)C2 (centres undefined)
105 to 106 °C	CC1(C)c2cc(C#N)ccc2OC1Cl (centres undefined)
78 to 79 °C	N#Cc1nc(F)c(Cl)c(F)c1Cl
141 °C	O=S(=O)(c1cccc2cccnc12)N1CCN(CCc2ccc(F)cc2)CC1
156 to 158 °C	O=c1nc(NCN2CCOCC2)c(F)cn1CN1CCOCC1
117 to 118 °C	CC(=O)c1nn[nH]c1-c1ccccc1
105 °C	C=C(CS(=O)(=O)c1ccccc1)c1ccccc1
240 to 241 °C	O=C1C(=O)c2ccc(-c3ccccc3)cc2C2=C1SCC1(CCN(C(=O)c3cccc(Cl)c3)CC1)O2

melting point	Compound
164 °C	CC(C)(C)c1cc(Cn2nc(-c3ccccc3)oc2=O)cc(C(C)(C)C)c1O
50 to 51 °C	Cc1ccc2c(c1C)OCC2c1ccc(C(C)C)cc1 (centres undefined)
175 to 178 °C	O=[N+]([O-])c1ccc2nc3c(nc2c1)CCCC3
113 °C	NCCNc1cc(Cl)cc(NCCN)c1[N+](=O)[O-]
254 to 256 °C	CN(C)c1nc(N)nc2nc[nH]c12
68 to 71 °C	CC(=O)N1CCC2(c3ccccc3)OC2C1 (centres undefined)
> 250 °C	O=C(Nc1ccncc1)c1ccc(C2=NCCN2)cc1
164 to 165 °C	CCOC(=O)C1=C(C)NC(C)=C(C(=O)OCC)C1c1ccc(Br)cc1
245 °C	Cc1ncc2c(c1O)COC2(C)c1ccccc1 (centres undefined)
247 to 249 °C	CC1CCc2ccc(N)c3c(=O)c(C(=O)O)cn1c23 (centres undefined)
152 to 153 °C	O=Cc1ccnc2ccc(Cl)cc12
77 to 78 °C	CC(C)NCC(O)COc1ccc(CCO)cc1 (centres undefined)
127 to 128 °C	COC(=O)CNC(=O)c1ccc(-c2ccccc2)cc1
149 to 150 °C	COC(=O)CCn1c(=O)n(CCN2CCN(c3ccccc3C)CC2)c(=O)c2cscc21
131 to 133 °C	CN1CCN(c2ccc3nnn(Cc4ccc5ncccc5c4)c3n2)CC1
98 to 105 °C	O=C(O)c1ccccc1Nc1ccc(CCCCc2ccc(Cl)c(Cl)c2)cc1
228 to 230 °C	Cc1ncc2cc(-c3c(Cl)cccc3Cl)c(NC(=O)c3ccco3)nc2n1
171 to 172 °C	Nc1nc(N)c(-c2ccc(Cl)cc2Cl)c(COCc2ccccc2)n1
140 to 142 °C	CS(=O)(=O)c1ccc(-c2cc(CO)sc2-c2ccc(F)cc2)cc1
104 °C	Cc1cc(=O)c(-c2ccc(Cl)c(Cl)c2)c(-c2ccccc2)o1
172 to 175 °C	O=C(CCCCl)c1ccc2c(c1)Cc1cc(C(=O)CCCCl)ccc1-2
183 to 184 °C	O=c1ccc(-c2ccco2)n[nH]1
148 to 150 °C	CCCCOc1ccc2c(=O)c(S(C)=O)cn(C)c2c1 (centres undefined)
209 to 211 °C	Cn1c(=S)n(C)c(=O)n(-c2c(F)cc(Cl)c3ncoc23)c1=O
205 to 207 °C	CC(C)(C)c1csc(-c2cc3cc(CSc4ccccc4C(=O)O)ccc3o2)n1

melting point	Compound
167 to 169 °C	CC(C)C1=NCCSC1=NO
137 to 140 °C	O=C1CCC(C2CCCCC2)C(=O)C1 (centres undefined)
251 to 253 °C	CNC(=O)Cc1c(-c2ccccc2)nc2n(C)c3ccc(C)cc3n12
191 to 192 °C	Cc1ccccc1-c1coc2cc(OCC(=O)O)cc(Cl)c2c1=O
196 to 198 °C	CC(C)(C)OC(=O)NCCCn1cnc2c(N)nc3ccccc3c21
167 to 169 °C	CC(C)C(NS(=O)(=O)c1ccc2c3c(oc2c1)CCCC3)C(=O)O (centres undefined)
> 260 °C	O=C(O)c1ccc(-c2ccc(Cl)cc2)cn1
45 to 46 °C	Cc1cccc(C(=O)OC2CCN(Cc3ccccc3)CC2)c1
184 to 186 °C	CC(=O)Nc1cccc(OCCCN2CCC(c3noc4cc(F)ccc34)CC2)c1
123 to 124 °C	Cc1oc(-c2ccccc2)nc1COc1cccc(CCCC2SC(=O)NC2=O)c1 (centres undefined)
169 to 171 °C	CCOC(=O)Nc1ccc2c(c1)c1c(n2Cc2cccc(F)c2)CC[C@@H](NC(=O)C(C)C)C1
90.5 to 91 °C	Cc1c2c(c(C)n1CCCN(C)C)C(C)(C#N)CC2(C)C (centres undefined)
162 °C	CCCCOc1ccc(S(=O)(=O)C2(C(=O)O)CCN(CC)CC2)cc1
101 to 102 °C	O=S(=O)(c1cc(Cl)ccc1O)N1CCCC1
227 to 229 °C	CCc1cn(C2CC(O)C(CCCNC(=O)Cc3c(Cl)cccc3Cl)O2)c(=O)[nH]c1=O (centres undefined)
175 to 176 °C	COc1c(C)c(C)c(OC)c(CN2C(=O)[C@H]3CCC[C@H]3Nc3ccccc32)c1C (relative stereo)
146 °C	O=[N+]([O-])c1ccc(Cl)cc1NC12CC3CC(CC(C3)C1)C2
252 to 254 °C	COc1ccc(-c2nnc3c4ccccc4c(CC#N)nn23)cc1
119 to 120 °C	O=Cc1nn2c3c(cccc13)CCC2
259 °C	CC(C)(C)C1=NN(c2ccc(C(=O)O)cc2)C(c2ccc(O)cc2)C1 (centres undefined)
127 °C	CCOC(=O)c1c(-c2cccc(Cl)c2)c2cc(C(O)c3nc(-c4ccccc4)cs3)ccc2[nH]c1=O (centres undefined)
200 to 202 °C	O=C1Cc2c(Oc3ccccc3)ccc(Cl)c2N1
184 °C	CC(C)n1c(=O)n(C(=O)NCC2(O)CCN(CC3(C(=O)O)CCCCC3)CC2)c2ccccc21
221 to 224 °C	Clc1ccc(CNc2nc(-c3nccc4ccccc34)nc3ccccc23)cc1
85 to 90 °C	CCOC(=O)c1nnc(C(=O)OCC)nn1

melting point	Compound
242 to 243 °C	Cc1cc2[nH]c(C)nc(N3CCOCC3)c-2n1
180 °C	CCOC1=NC(N)=C(C(=O)OC)C(c2ccccc2F)C1C(=O)OC (centres undefined)
140 °C	COc1ccc(-c2cc(=O)n(CCc3ccccc3)nc2-c2ccc(OC)cc2)cc1
128 °C	O=C(O)CCC(NC(=O)c1ccccc1)C(=O)NC(c1ccccc1)c1ccccc1 (centres undefined)
110 to 120 °C	CCOCc1nc2c(N)nc3cc(OCCCCCCNC(=S)NC(C)C)ccc3c2n1CC(C)(C)NC(C)=O
130 to 132 °C	CC(C)(C)c1nn(-c2cc(O)c(Cl)cc2Cl)c(=O)s1
> 250 °C	CSc1nc(O)c(C=O)c(O)n1
194 to 195 °C	COc1ccc(/C=C/C(=O)Nc2ccccc2C(=O)O)cc1
242 to 245 °C	CN(C)S(=O)(=O)c1cc2cc(C(=O)O)oc2c(Cl)c1Cl
72 °C	CCOC(C#N)NC(=O)c1cccc(OC)c1 (centres undefined)
94 to 105 °C	NC1=NC(c2ccc(OC(F)(F)F)cc2)(c2ccc(F)c(N3C=C(F)C=NC3)c2)C2=NCCCN12 (centres undefined)
112 to 114 °C	CON(c1ccc([N+](=O)[O-])cc1[N+](=O)[O-])S(=O)(=O)c1ccccc1Cl
97 to 98 °C	CCc1cc(O)cc(O)c1
142 to 144 °C	Cc1cc(Nc2nccc(-c3sc(CO)nc3C)n2)ccc1N1CCCCC1
189 to 190 °C	COc1ccc(C(=O)Nc2ccccc2)cc1NS(=O)(=O)c1cc(Cl)sc1Cl
45 to 47 °C	CCS(=O)(=O)CCN1CCCCC1
87 °C	CC(=O)Nc1cccc(C)n1
94 to 95 °C	COc1cc(CCCC#N)ccc1OCc1nc(-c2ccco2)oc1C
125 to 127 °C	Cc1c(Cl)ccc(S(C)(=O)=O)c1Cl
195 to 198 °C	O=C1CC2=C(CCN1)c1ccccc1Sc1ccccc12
305 to 312 °C	N#Cc1cccc2c1C(=O)C(O)=C(O)C2=O
189 to 191 °C	Cc1ccc(-n2c(=O)nc(N(C)C)n(C)c2=O)cc1C
120 to 121 °C	O=C(NCCCl)Nc1ccc(CCCc2ccccc2OCc2ccccc2)cc1
165 to 166 °C	CC(C)(C)COc1cccc(C[C@@H](NC(=O)c2ccc(F)c3ccccc23)[C@@H](O)c2cccc(Cl)c2)c1 (racemic)
198 to 201 °C	COc1cc(OC)nc(Oc2ccc3c(c2C(=O)O)OCO3)n1

Compound	melting point
CC(c1cccc(NC(=O)NC2N=C(c3ccccc3F)c3ccccc3N(CC(=O)N3CC4CCC(CC4)C3)C2=O)c1)S(=O)(=O)O (racemic)	> 250 °C
C#CC1(OC(C)=O)CCC2C3CCC4=CC(=O)C=CC4(C)C3CCC21C (centres undefined)	172 to 173 °C
CCOCc1nnc2n1-c1ccc(Cl)cc1C(c1ccccc1)=NC2	168 to 170 °C
OC12C=C(C3NCCc4c3[nH]c3ccccc43)C3CCN(CCCCC=CCC1)CC31CC3C=CCCCCN3C21 (centres undefined)	165 to 168 °C
